These results are taken from US9504692B2, “Selective inhibition of MALT1 protease by phenothiazine derivatives” (HELMHOLTZ ZENTRUM MUNCHEN, DEUTSCHES FORSCHUNGSZENTRUM FUR …, priority 2011, dated 2016).

Entries after “also recorded” stand apart in the source; their conditions may differ. Where two headings read alike, the source gives them in different places. *1 amine or outer side, *2 acyl side, *3 side chain or, on linkers, in order; H or OH if unused. Where a SMILES comes first, the peptide text is derived from it. [ ]: non-standard residue; d: D form. The star is where a group is joined. Sta = CC(C)C[C@H](N)[C@@H](O)CC(=O)O; Isovaleryl = CC(C)CC(=O)*; CO = O=C([*:1])[*:2]

Experiment [1] has as its target recombinant full length (FL) GSTMALT1 (Homo sapiens (Human), UniProt Q9UDY8). Briefly: Recombinant GSTMALT1 cleavage assay with Ac-LRSR-AMC. The experiment is classed as biochemical. As for the experimental part: The MALT1 cleavage assay was used to screen ˜18000 small molecules of the ChemBioNet library at the Leibniz Institute for Molecular Pharmacology (FMP) in Berlin.^35 Screening volume was 11 μl in a 384-well non-binding assay plate (Corning) with […] GSTMALT1 against 10 μM final concentration of compounds. The assay was performed with 50 μM of Ac-LRSR-AMC substrate for 20 min at 30° C. As a negative control the recombinant MALT1 mutant C453A was used, as a medium inhibition control 1 nM of the Z-VRPR-FMK peptide.
To screen for small molecular weight compounds that can inhibit MALT1 protease activity, recombinant GSTMALT1 was purified from E. coli to establish an in vitro protease cleavage assay suitable for high throughput screening (HTS). GSTMALT1 was incubated for 1 h at 30° C. in the presence of 50 μM of the tetrapeptide substrate Ac-LRSR-AMC, which is derived from the MALT1 cleavage site in the C-terminus of BCL10.^7 Proteolytic activity was determined by measuring the increase of fluorescence, which is emitted after cleavage and the accompanying release of the fluorophore AMC (FIGS. 1A and B). […] Similar to arginine-lysine specific metacaspases, the MALT1 protease has a high preference for cleaving after an arginine residue.

A further experiment has as its target AtMC4 (Arabidopsis thaliana (Mouse-ear cress), UniProt O64517). The conditions noted are these: cited from earlier work.
Another experiment addresses AtMC9 (Arabidopsis thaliana (Mouse-ear cress), UniProt Q9FYE1). Conditions: cited from earlier work.
The test system of experiment [2] is primary murine CD4+ T-cells. Briefly: IL-2 mRNA (qPCR) and protein (ELISA) in primary murine CD4+ T cells. Conditions: 5 and 10 μM. The experiment is classed as cell-based, mouse. Background: Quantitative PCR measures a nucleic acid by following its amplification.
The next experiment deals with NF-κB. Briefly: NF-κB DNA binding (EMSA) and NF-κB target proteins in ABC-DLBCL cells. It is filed as cell-based. Conditions: 10 and 20 μM.
A further experiment has as its system Jurkat T cells. Briefly: IL-2 secretion of Jurkat T cells (ELISA). It is filed as cell-based, human. The conditions noted are these: 5 and 10 μM; P/I or anti-CD3/CD28 for 20 h.
In experiment [3] the test system is GCB-DLBCL cells. Briefly: Apoptosis by AnnexinV-PE/7-AAD FACS, GCB-DLBCL cells. Conditions: 15 μM, five days. It is filed as cell-based. As for the experimental part: (§1) Viability of DLBCL cell lines was analysed with a cell count assay of trypan blue stained cells after four days and by MTT (3-4,5-Dimethylthiazol-2-yl-2,5-diphenyltetrazoliumbromid) cytotoxicity test after two days of dose-dependent inhibitor treatment in comparison to DMSO treated control cells. The cell-dependent reduction of MTT to formazan was measured at λ=450 nm with a μQuant microplate spectrophotometer (Biotek). Apoptosis rates were determined with PE-Annexin V staining of 7AAD^− cells (BD Pharmingen) by FACS analysis (LSRII, BD) after five days of compound treatment. Data was analyzed using FlowJo software (Treestar).

For experiment [4], the system named is ABC-DLBCL cell line OCI-Ly10. Briefly: Murine DLBCL xenogeneic tumor model, ABC-DLBCL OCI-Ly10. The experiment is classed as in vivo, NSG mice. As for the experimental part:
(§2) (A) Transplantation of OCI-Ly10 or Su-DHL-6 cells resuspended in matrigel (BD) into the flanks of NOD.Cg-Prkdc^scid ll2rg^tm1Wjl/SzJ (NSG) mice was carried out on day 0. Tumor size was determined by caliper measurement. […] Apoptosis was determined on tumor sections by TUNEL staining after 22 days of treatment. Pictures show staining of representative tumor sections. […] Expression of RelB and the MALT1-dependent cleavage product RelBΔ were detected in extracts of OCI-Ly10 tumor specimens by Western Blotting after 22 days.
(§3) For this purpose, the ABC-DLBCL cell line OCI-Ly10 and the GCB-DLBCL cell line Su-DHL-6 were injected as subcutaneous xenografts into NOD/scid IL-2Rg^null (NSG) mice (FIG. 8A). Both tumor cell lines were engrafted simultaneously on opposite flanks of individual mice.
(§4) Transplanted tumors were removed at the end of the treatment period and apoptotic cells were visualized by TUNEL staining on sections of the tumor tissue (FIG. 8B).

Experiment [5] has as its system ABC-DLBCL cells HBL1, OCI-Ly3, U2932 and TMD8. Briefly: MTT cytotoxicity test, ABC-DLBCL cells. The conditions noted are these: two days, single treatment, increasing concentrations. The experiment is classed as cell-based. As for the experimental part:
as §1
(§5) Further, cell viability was determined by cell counting after 4 days of treatment (FIG. 7B, D and FIG. 12C).
On the technique in general: Tetrazolium assays rely on reduction of a dye to a coloured formazan, in cell work by metabolically active cells.

For experiment [6], the system named is ABC-DLBCL cells. Briefly: IL-6 and IL-10 secretion of ABC-DLBCL cells (ELISA). Conditions: 20 h; ABC cell lines.
Protocol: Whole cell extracts, Western blotting and EMSA were performed as described previously.^9 Antibodies used were BCL-XL (Cell signaling), MALT1 (H300, B12), BCL10 (H197), c-FLIP (Alexis Biochemicals) and β-Actin (I-19). BCL10 cleavage was visualized after 20 h treatment of diffuse large B-cell lymphoma cells with different doses of PD.
For experiment [7], the system named is GCB-DLBCL cell line Su-DHL-6. Briefly: Murine DLBCL xenogeneic tumor model, GCB-DLBCL Su-DHL-6. The experiment is classed as in vivo, NSG mice. As for the experimental part: as §2, §3, §4
Experiment [8] concerns ABC-DLBCL cells. Briefly: Apoptosis by AnnexinV-PE/7-AAD FACS, ABC-DLBCL cells. It is filed as cell-based. Conditions: 15 μM, five days. As for the experimental part: as §1
A further experiment deals with primary human PBMCs. Briefly: IL-2 secretion of primary human PBMCs (ELISA). Conditions: 5 and 10 μM for 3 h; anti-CD3/CD28 20 h. It is filed as cell-based. On the technique in general: ELISA stands for enzyme-linked immunosorbent assay.
For experiment [9], the system named is GCB-DLBCL cell lines BJAB, Su-DHL-6 and Su-DHL-4. Briefly: MTT cytotoxicity test, GCB-DLBCL cells. The conditions noted are these: two days, single treatment, increasing concentrations. The experiment is classed as cell-based. As for the experimental part: as §1, §5
Experiment [10] deals with GCB-DLBCL cells. Briefly: Viability by cell counting, GCB-DLBCL cells. The experiment is classed as cell-based. The conditions noted are these: 4 days of treatment. As for the experimental part: as §1, §5
Experiment [11] has as its system ABC-DLBCL cells. Briefly: Viability by cell counting, ABC-DLBCL cells. The experiment is classed as cell-based. The conditions noted are these: 4 days of treatment. As for the experimental part: as §1, §5
A further experiment concerns the target human recombinant CASP8 (Homo sapiens (Human), UniProt Q14790). Briefly: CASP8 cleavage assay with Ac-DEVD-AMC. It is filed as biochemical. The conditions noted are these: 50 pM; picomolar concentrations. As for the experimental part:
After incubation of 16 h at 4° C.

Setting [12] is: daily i.p., mepazine 12 mg/kg or thioridazine 16 mg/kg, 22 days.

Chain of AtMC4 (O64517 whole entry): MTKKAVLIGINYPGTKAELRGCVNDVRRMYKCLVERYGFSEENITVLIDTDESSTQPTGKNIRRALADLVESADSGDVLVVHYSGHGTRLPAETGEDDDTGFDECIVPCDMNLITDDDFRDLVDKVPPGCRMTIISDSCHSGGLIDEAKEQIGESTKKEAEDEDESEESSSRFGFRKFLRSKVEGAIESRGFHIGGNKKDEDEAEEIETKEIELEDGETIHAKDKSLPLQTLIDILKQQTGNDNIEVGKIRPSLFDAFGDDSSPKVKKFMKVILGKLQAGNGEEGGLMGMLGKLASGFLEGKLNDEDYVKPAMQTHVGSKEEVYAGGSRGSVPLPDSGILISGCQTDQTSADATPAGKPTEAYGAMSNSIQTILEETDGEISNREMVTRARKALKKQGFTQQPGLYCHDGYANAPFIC
Chain of recombinant full length (FL) GSTMALT1 (Q9UDY8 other isoform, or with tags, fused parts or gaps): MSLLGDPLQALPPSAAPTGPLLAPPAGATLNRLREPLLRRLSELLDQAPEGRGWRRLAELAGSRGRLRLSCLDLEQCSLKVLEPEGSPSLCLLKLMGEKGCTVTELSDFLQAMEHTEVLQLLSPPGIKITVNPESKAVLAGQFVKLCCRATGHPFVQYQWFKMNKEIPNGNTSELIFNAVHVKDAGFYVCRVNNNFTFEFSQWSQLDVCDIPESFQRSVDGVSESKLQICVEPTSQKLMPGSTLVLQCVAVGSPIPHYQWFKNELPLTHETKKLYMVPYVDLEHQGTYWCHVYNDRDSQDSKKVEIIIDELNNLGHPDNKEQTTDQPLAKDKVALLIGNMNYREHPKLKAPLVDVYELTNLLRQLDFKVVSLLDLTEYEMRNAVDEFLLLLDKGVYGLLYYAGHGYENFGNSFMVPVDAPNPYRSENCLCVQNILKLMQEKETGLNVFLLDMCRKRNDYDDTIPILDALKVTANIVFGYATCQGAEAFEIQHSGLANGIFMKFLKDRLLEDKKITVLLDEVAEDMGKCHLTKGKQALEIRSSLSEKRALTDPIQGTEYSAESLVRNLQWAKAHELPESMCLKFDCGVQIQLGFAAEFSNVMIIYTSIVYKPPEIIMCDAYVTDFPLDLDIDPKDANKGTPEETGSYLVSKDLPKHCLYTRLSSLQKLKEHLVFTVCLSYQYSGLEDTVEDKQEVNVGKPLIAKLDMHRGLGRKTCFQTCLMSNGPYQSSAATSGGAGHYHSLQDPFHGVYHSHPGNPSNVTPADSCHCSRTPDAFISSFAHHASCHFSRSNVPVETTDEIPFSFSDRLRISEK
Chain of AtMC9 (Q9FYE1 whole entry): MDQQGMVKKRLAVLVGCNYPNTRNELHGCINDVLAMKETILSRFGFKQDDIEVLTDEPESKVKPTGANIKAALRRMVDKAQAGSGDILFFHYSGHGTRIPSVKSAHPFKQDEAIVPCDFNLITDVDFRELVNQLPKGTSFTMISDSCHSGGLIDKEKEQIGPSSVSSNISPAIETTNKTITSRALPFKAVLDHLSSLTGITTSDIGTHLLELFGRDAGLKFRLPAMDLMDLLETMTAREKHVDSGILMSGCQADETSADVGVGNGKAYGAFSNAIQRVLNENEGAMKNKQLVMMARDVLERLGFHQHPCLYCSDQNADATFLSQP
Chain of human recombinant CASP8 (Q14790 217-374): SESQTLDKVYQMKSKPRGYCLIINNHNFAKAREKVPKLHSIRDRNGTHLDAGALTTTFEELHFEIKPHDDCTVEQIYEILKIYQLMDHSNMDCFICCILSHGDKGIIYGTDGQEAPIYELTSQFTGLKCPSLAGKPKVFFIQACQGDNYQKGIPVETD
Chain of human recombinant CASP8 (Q14790 385-479): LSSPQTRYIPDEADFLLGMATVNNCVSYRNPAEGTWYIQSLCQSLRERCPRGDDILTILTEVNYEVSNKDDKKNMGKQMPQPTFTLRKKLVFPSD

Consider `CC(C)[C@H](NC(=O)[C@H](CCCNC(=N)N)NC(=O)N[C@@H](Cc1ccccc1)C(=O)O)C(=O)N[C@H](C=O)CCCNC(=N)N` [Antipain] ({Phe-CO}-Arg-Val-Arg-aldehyde), for which, in experiment [1] (1 μM inhibitor), the “effect on MALT1 activity” value is “diminished; also recorded: inhibited”. On AtMC4 (1 μM inhibitor), the “effect on AtMC4” value is on record as “inhibited”. The “effect on AtMC9” value at AtMC9 (1 μM inhibitor) is reported as “inhibited”.
On to `CC(C)C[C@H](NC(=O)[C@@H](NC(=O)N[C@@H](Cc1ccccc1)C(=O)O)[C@@H]1CCN=C(N)N1)C(=O)N[C@H](C=O)Cc1ccccc1` [Chymostatin], for which, in [1] (100 μM inhibitor), the “effect on MALT1 activity” value was “diminished; also recorded: inhibited”. In addition, the “effect on AtMC4” value on AtMC4 (100 μM inhibitor) is listed as “inhibited”. In addition, the “effect on AtMC9” value at AtMC9 (100 μM inhibitor) is given as “inhibited”.
Take `CC(C)C[C@H](NC(=O)[C@H]1O[C@@H]1C(=O)O)C(=O)NCCCCN=C(N)N` [E-64]: in [1] (100 μM inhibitor), the “effect on MALT1 activity” value is “does not inhibit MALT1”. Further, the “effect on AtMC4” value on AtMC4 (100 μM inhibitor) is “mild effect”. The “effect on AtMC9” value at AtMC9 (100 μM inhibitor) was “not AtMC9”.
Take `CC(=O)N[C@@H](CC(C)C)C(=O)N[C@@H](CC(C)C)C(=O)N[C@H](C=O)CCCNC(=N)N` [Leupeptin]: the “effect on AtMC4” value on AtMC4 (1 μM inhibitor) is recorded as “acting stronger on plant metacaspases”. Also, at AtMC9 (1 μM inhibitor), the “effect on AtMC9” value is recorded as “acting stronger on plant metacaspases”.
As for `CC(C)CC(=O)N[C@H](C(=O)N[C@H](C(=O)N[C@@H](CC(C)C)[C@@H](O)CC(=O)N[C@@H](C)C(=O)N[C@@H](CC(C)C)[C@@H](O)CC(=O)O)C(C)C)C(C)C` [Pepstatin A] (Isovaleryl-VV[Sta]A[Sta]-OH), the “effect on MALT1 activity” value in [1] (100 μM inhibitor) is “no effects”.
Turning to `Cc1ccc(S(=O)(=O)NC(CCCCN)C(=O)CCl)cc1` (stereo not shown) [TLCK], in [1] (1 μM inhibitor), the “effect on MALT1 activity” value is “no effects; also recorded: only mildly affecting MALT1 activity”. The “effect on AtMC4” value on AtMC4 (1 μM inhibitor) was “much weaker”. On AtMC9 (1 μM inhibitor), the “effect on AtMC9” value is recorded as “strongly inhibits”.
Consider `CN1CCCC(CN2c3ccccc3Sc3ccccc32)C1` (stereo not shown) [mepazine, 10-[(1-methyl-3-piperidinyl)methyl]-10H-phenothiazine acetate], for which the “IL-2 mRNA induction” value in [2] (3 h pre-treatment, anti-CD3/CD28 4 h) is recorded as “reduced in a dose-dependent manner”. For the same compound, in experiment [2] (anti-CD3/CD28 20 h), the IL-2 protein expression entry is reported as “reduced in a dose-dependent manner”. For the same compound, in the experiment on NF-κB (20 h), the “BCL-XL and FLIP-L protein levels” value is “dose-dependent decrease”. In the experiment on NF-κB (20 hours), the “NF-κB target DNA binding” value is given as “reduced NF-κB target DNA binding”. Further, the “secreted IL-2 levels” value with Jurkat T cells is reported as “decrease of IL-2 levels”. Further, the results for the apoptotic rate result in the experiment on GCB-DLBCL cells [3] and with ABC-DLBCL cells [8] were “apoptosis was not increased” and “enhanced apoptotic rate”, respectively. Further, in experiment [4] (Western Blot after 22 days), the “constitutive RelB cleavage in OCI-Ly10 tumor specimens” value is listed as “impaired”. Moreover, the “apoptotic cells in tumor sections (TUNEL)” value is reported as “increased the number of apoptotic cells” in experiment [4] (after 22 days of treatment) and “no induction of apoptosis” in experiment [7] (after 22 days of treatment). Besides, the “tumor growth of OCI-Ly10 xenograft” value in experiment [4] (setting [12]) is reported as “strongly impaired the expansion”. The “cell viability by MTT” value in experiment [5] is recorded as “promoted a decrease of cell viability”; in [9], “without significantly affecting GCB-DLBCL cells”. Besides, the “decrease of IL-6 and IL-10 secretion” value in the experiment on ABC-DLBCL cells [6] is on record as roughly 50%. The “tumor growth of Su-DHL-6 xenograft” value in [7] (setting [12]) is reported as “completely failed to exert any inhibitory effects”. Besides, the IL-2 secretion entry with primary human PBMCs is recorded as “significant decrease of IL-2 secretion”.
Regarding `c1ccc2c(c1)Nc1ccccc1S2` [phenothiazine], the “inhibition of GSTMALT1 activity” value in experiment [1] (1, 5 and 20 μM) is listed as “inhibiting MALT1 activity in a dose-dependent manner”.
Turning to `CC(CN1c2ccccc2Sc2ccccc21)N(C)C` (stereo not shown) [promethazine], the “number of viable cells / viability” value with GCB-DLBCL cells [10] and in the experiment on ABC-DLBCL cells [11] was “did not significantly inhibit viability” in each case. Further, the MALT1 inhibition result in [1] (concentrations up to 20 μM) is recorded as “not inhibiting MALT1 protease activity; also recorded: did not cause any significant MALT1 inhibition”.
Take Ac-DEVD-CHO: the “effect on MALT1 activity” value in experiment [1] (200 μM inhibitor) is listed as “not significantly active; also recorded: only marginally reduced MALT1 activity”. In addition, the “CASP8 activity against Ac-DEVD-AMC” value at human recombinant CASP8 is “almost total decline of enzymatic activity; also recorded: effectively blocked CASP8 activity”.
In the case of Aprotinin, the “effect on MALT1 activity” value in experiment [1] (5 μg/ml inhibitor) is listed as “no effects”.
For Z-VRPR-FMK, in experiment [1] (1 nM inhibitor, 50 μM Ac-LRSR-AMC, 1 h at 30° C.), the “decrease of MALT1 activity” value is recorded as roughly 50%. Further, the “MALT1 cleavage activity with increasing amounts of inhibitor” value in experiment [1] (increasing amounts, low nanomolar concentrations) is reported as “total loss of MALT1 activity; also recorded: completely blocked MALT1 cleavage activity”.
